Assays:
[1] = target: NRAS Q61K (Homo sapiens (Human), UniProt P01111+P62937, Q61K); test: Ras-Raf disruption/FRET/MOA assay, NRAS Q61K; format: biochemical
Excerpt: (§1) Disruption of B-Raf Ras-Binding Domain (BRAF^RBD) Interaction with K-Ras by Compounds of the Invention (Also Called a FRET Assay or an MOA Assay)
(§2) Note—The following protocol describes a procedure for monitoring disruption of K-Ras G12C (GMP-PNP) binding to BRAF^RBD by a compound of the invention. This protocol may also be executed substituting other Ras proteins or nucleotides, such as K-Ras G12D and K-Ras G13D.
(§3) The purpose of this biochemical assay was to measure the ability of test compounds to facilitate ternary complex formation between a nucleotide-loaded K-Ras isoform and Cyclophilin A; the resulting ternary complex disrupts binding to a BRAF^RBD construct, inhibiting K-Ras signaling through a RAF effector. Data is reported as IC50 values.
(§4) In assay buffer containing 25 mM HEPES pH 7.3, 0.002% Tween20, 0.1% BSA, 100 mM NaCl and 5 mM MgCl2, tagless Cyclophilin A, His6-K-Ras-GMPPNP, and GST-BRAF^RBD were combined in a 384-well assay plate at final concentrations of 25 μM, 12.5 nM, and 50 nM, respectively. Compound was present in plate wells as a 10-point 3-fold dilution series starting at a final concentration of 30 μM. After incubation at 25° C. for 3 hours, a mixture of anti-His Eu—W1024 and anti-GST allophycocyanin was then added to assay sample wells at final concentrations of 10 nM and 50 nM, respectively, and the reaction incubated for an additional 1.5 hours. […] Compounds that facilitate disruption of a K-Ras: RAF complex were identified as those eliciting a decrease in the TR-FRET ratio relative to DMSO control wells.

[2] = target: KRAS G12V (Homo sapiens (Human), UniProt P01116+P62937, G12V); test: Ras-Raf disruption/FRET/MOA assay, KRAS G12V; format: biochemical
In short: (§5)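 TR-FRET of nucleotide-loaded (GMP-PNP) His6-Ras (12.5 nM) binding to GST-BRAF RBD (50 nM) with Cyclophilin A (25 μM) in HEPES pH 7.3 buffer; 10-point 3-fold compound series from 30 μM, 3 h at 25 °C, then anti-His Eu/anti-GST APC 1.5 h. IC50 from decreased FRET ratio vs DMSO.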

[3] = target: KRAS WT (Homo sapiens (Human), UniProt P01116+P62937); test: Ras-Raf disruption/FRET/MOA assay, KRAS WT; format: biochemical
In short: as §5

[4] = target: KRAS G12C (Homo sapiens (Human), UniProt P01116+P62937, G12C); test: Ras-Raf disruption/FRET/MOA assay, KRAS G12C; format: biochemical
In short: as §5

[5] = target: KRAS G13D (Homo sapiens (Human), UniProt P01116+P62937, G13D); test: Ras-Raf disruption/FRET/MOA assay, KRAS G13D; format: biochemical
In short: as §5

[6] = target: KRAS G12D (Homo sapiens (Human), UniProt P01116+P62937, G12D); test: Ras-Raf disruption/FRET/MOA assay, KRAS G12D; format: biochemical
In short: as §5

[7] = target: NRAS WT (Homo sapiens (Human), UniProt P01111+P62937); test: Ras-Raf disruption/FRET/MOA assay, NRAS WT; format: biochemical
Excerpt: as §1, §2, §3, §4

[8] = target: KRAS Q61H (Homo sapiens (Human), UniProt P01116+P62937, Q61H); test: Ras-Raf disruption/FRET/MOA assay, KRAS Q61H; format: biochemical
Excerpt: as §1, §2, §3, §4

[9] = target: KRAS G13C (Homo sapiens (Human), UniProt P01116+P62937, G13C); test: Ras-Raf disruption/FRET/MOA assay, KRAS G13C; format: biochemical
In short: as §5

[10] = tested on: AsPC-1 (K-Ras G12D); test: Potency assay: pERK; format: cell-based, human; conditions: Homo sapiens, ASPC1; AsPC-1 KRAS G12D; read-out: pERK EC50
In short: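 pERK decrease measured after 4 h compound treatment at 37 °C (10 three-fold dilutions, duplicate wells), by either fixed-cell In-Cell Western with DRAQ5 counterstain or AlphaLISA on lysates. Signal fitted against log concentration with a four-parameter model to give IC50.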

[11] = target: KRAS G12S (Homo sapiens (Human), UniProt P01116+P62937, G12S); test: Ras-Raf disruption/FRET/MOA assay, KRAS G12S; format: biochemical
In short: as §5

[12] = target: NRAS Q61R (Homo sapiens (Human), UniProt P01111+P62937, Q61R); test: Ras-Raf disruption/FRET/MOA assay, NRAS Q61R; format: biochemical
Excerpt: as §1, §2, §3, §4

[13] = target: NRAS G12C (Homo sapiens (Human), UniProt P01111+P62937, G12C); test: Ras-Raf disruption/FRET/MOA assay, NRAS G12C; format: biochemical
In short: as §5

Chain of NRAS Q61K (P01111 whole entry Q61K, the tested form may be a part): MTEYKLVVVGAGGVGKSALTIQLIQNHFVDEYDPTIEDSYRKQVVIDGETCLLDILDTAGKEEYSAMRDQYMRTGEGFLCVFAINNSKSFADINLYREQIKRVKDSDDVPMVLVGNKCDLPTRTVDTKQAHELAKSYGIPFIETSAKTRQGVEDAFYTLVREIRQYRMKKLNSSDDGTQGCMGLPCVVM
Chain of NRAS Q61K (P62937 whole entry, the tested form may be a part): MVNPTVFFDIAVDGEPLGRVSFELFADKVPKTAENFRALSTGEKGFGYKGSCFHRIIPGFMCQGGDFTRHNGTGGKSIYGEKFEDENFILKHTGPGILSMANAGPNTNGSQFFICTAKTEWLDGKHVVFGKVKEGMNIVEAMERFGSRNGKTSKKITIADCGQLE
Chain of NRAS G12C (P01111 whole entry G12C): as the sequence (P01111 whole entry Q61K, the tested form may be a part) above, with G12C, K61Q counted along it
Chain of NRAS G12C (P62937 whole entry): as the sequence (P62937 whole entry, the tested form may be a part) above
Chain of KRAS G12S (P01116 other isoform, or with tags, fused parts or gaps G12S): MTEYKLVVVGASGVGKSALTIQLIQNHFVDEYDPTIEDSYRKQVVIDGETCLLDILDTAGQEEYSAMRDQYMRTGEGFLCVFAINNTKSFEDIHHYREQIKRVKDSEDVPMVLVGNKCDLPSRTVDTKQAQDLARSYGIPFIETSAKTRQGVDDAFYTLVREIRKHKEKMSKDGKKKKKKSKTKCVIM
Chain of KRAS G12S (P62937 whole entry): as the sequence (P62937 whole entry, the tested form may be a part) above
Chain of KRAS G12V (P01116 other isoform, or with tags, fused parts or gaps G12V): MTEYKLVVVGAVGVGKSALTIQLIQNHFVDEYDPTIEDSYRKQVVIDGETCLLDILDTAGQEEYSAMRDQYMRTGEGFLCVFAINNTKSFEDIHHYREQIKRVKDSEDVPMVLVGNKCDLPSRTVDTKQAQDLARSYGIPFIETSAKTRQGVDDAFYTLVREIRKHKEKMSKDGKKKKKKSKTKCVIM
Chain of KRAS G12V (P62937 whole entry): as the sequence (P62937 whole entry, the tested form may be a part) above
Chain of KRAS G13C (P01116 other isoform, or with tags, fused parts or gaps G13C): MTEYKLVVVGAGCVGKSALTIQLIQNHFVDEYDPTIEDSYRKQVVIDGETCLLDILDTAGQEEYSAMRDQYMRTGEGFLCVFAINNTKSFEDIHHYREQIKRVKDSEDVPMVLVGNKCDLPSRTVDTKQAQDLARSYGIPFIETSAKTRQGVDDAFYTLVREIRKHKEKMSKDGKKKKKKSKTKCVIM
Chain of KRAS G13C (P62937 whole entry): as the sequence (P62937 whole entry, the tested form may be a part) above
Chain of KRAS G13D (P01116 other isoform, or with tags, fused parts or gaps G13D): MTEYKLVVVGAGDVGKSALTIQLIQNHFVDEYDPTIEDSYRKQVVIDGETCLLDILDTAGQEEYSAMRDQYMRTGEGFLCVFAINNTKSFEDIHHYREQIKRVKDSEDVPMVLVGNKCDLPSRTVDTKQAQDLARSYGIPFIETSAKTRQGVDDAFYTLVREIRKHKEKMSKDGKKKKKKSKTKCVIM
Chain of KRAS G13D (P62937 whole entry): as the sequence (P62937 whole entry, the tested form may be a part) above
Chain of KRAS Q61H (P01116 other isoform, or with tags, fused parts or gaps Q61H): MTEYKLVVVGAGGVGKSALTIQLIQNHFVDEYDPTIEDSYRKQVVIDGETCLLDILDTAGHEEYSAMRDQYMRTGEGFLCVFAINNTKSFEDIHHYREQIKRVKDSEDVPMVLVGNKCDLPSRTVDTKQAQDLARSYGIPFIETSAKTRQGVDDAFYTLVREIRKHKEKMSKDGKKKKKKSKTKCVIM
Chain of KRAS Q61H (P62937 whole entry): as the sequence (P62937 whole entry, the tested form may be a part) above
Chain of NRAS Q61R (P01111 whole entry Q61R): as the sequence (P01111 whole entry Q61K, the tested form may be a part) above, with K61R counted along it
Chain of NRAS Q61R (P62937 whole entry): as the sequence (P62937 whole entry, the tested form may be a part) above
Chain of KRAS G12C (P01116-2 other isoform, or with tags, fused parts or gaps G12C): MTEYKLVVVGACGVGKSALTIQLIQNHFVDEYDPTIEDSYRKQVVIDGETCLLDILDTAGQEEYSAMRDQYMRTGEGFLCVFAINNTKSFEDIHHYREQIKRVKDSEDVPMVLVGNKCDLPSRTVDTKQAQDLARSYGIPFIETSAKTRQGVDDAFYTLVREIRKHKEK
Chain of KRAS G12C (P62937 whole entry): as the sequence (P62937 whole entry, the tested form may be a part) above
Chain of KRAS G12D (P01116 other isoform, or with tags, fused parts or gaps G12D): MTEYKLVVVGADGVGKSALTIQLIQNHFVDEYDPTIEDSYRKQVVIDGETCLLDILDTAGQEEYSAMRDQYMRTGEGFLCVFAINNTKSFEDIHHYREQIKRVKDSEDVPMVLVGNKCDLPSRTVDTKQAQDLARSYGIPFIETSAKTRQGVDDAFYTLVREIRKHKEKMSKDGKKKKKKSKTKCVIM
Chain of KRAS G12D (P62937 whole entry): as the sequence (P62937 whole entry, the tested form may be a part) above
Chain of NRAS WT (P01111 whole entry): as the sequence (P01111 whole entry Q61K, the tested form may be a part) above, with K61Q counted along it
Chain of NRAS WT (P62937 whole entry): as the sequence (P62937 whole entry, the tested form may be a part) above
Chain of KRAS WT (P01116 other isoform, or with tags, fused parts or gaps): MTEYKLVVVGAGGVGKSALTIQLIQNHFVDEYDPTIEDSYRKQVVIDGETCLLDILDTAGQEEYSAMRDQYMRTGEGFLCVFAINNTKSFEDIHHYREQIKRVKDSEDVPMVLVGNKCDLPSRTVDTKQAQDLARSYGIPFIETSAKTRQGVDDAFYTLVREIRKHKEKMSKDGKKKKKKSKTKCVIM
Chain of KRAS WT (P62937 whole entry): as the sequence (P62937 whole entry, the tested form may be a part) above

Row | Compound | IC50 [1] [nM] | IC50 [2] [nM] | IC50 [3] [nM] | IC50 [4] [nM] | IC50 [5] [nM] | IC50 [6] [nM] | IC50 [7] [nM] | IC50 [8] [nM] | IC50 [9] [nM] | EC50 [10] [nM] | IC50 [11] [nM] | IC50 [12] [nM] | IC50 [13] [nM]
1 | CCn1c(-c2cccnc2[C@H](C)OC)c2c3cc(ccc31)-c1cc(O)cc(c1)C[C@H](NC(=O)[C@@H](C(C)C)N(C)C(=O)[C@@]1(C)CCCN1C(=O)[C@H]1CN1)C(=O)N1CCC[C@H](N1)C(=O)OCC(C)(C)C2 [Example 240] | > 10000 | 1000 to 10000 | 100 to 1000 | 100 to 1000 | 1000 to 10000 | 1000 to 10000 | 1000 to 10000 | 100 to 1000 | 1000 to 10000 | < 5000 | 1000 to 10000 | 1000 to 10000 | 100 to 1000
2 | CCn1c(-c2cccnc2[C@H](C)OC)c2c3cc(ccc31)-c1cc(O)cc(c1)C[C@H](NC(=O)[C@H](C(C)C)N(C)C(=O)[C@@]1(C)CCCN1C(=O)[C@@H]1CN1)C(=O)N1CCC[C@H](N1)C(=O)OCC(C)(C)C2 [Example 241] | 100 to 1000 | 10 to 100 | 10 to 100 | < 10 | 10 to 100 | 10 to 100 | 10 to 100 | 10 to 100 | 10 to 100 | < 5000 | 10 to 100 | 100 to 1000 | < 10
3 | CCn1c(-c2cccnc2[C@H](C)OC)c2c3cc(ccc31)-c1cc(O)cc(c1)C[C@H](NC(=O)[C@@H](C(C)C)N(C)C(=O)[C@@]1(C)CCCN1C(=O)[C@@H]1CN1)C(=O)N1CCC[C@H](N1)C(=O)OCC(C)(C)C2 [Example 242] | 1000 to 10000 | 1000 to 10000 | 100 to 1000 | 100 to 1000 | 100 to 1000 | 100 to 1000 | 100 to 1000 | 100 to 1000 | 1000 to 10000 | < 5000 | 100 to 1000 | 1000 to 10000 | 100 to 1000
4 | CCn1c(-c2cccnc2[C@H](C)OC)c2c3cc(ccc31)-c1cc(O)cc(c1)C[C@H](NC(=O)[C@H](C(C)C)N(C)C(=O)[C@]1(C)CCCN1C(=O)[C@H]1CN1)C(=O)N1CCC[C@H](N1)C(=O)OCC(C)(C)C2 [Example 243] | 1000 to 10000 | 100 to 1000 | 100 to 1000 | 10 to 100 | 100 to 1000 | 100 to 1000 | 100 to 1000 | 100 to 1000 | 100 to 1000 | < 5000 | 100 to 1000 | 1000 to 10000 | 10 to 100

Source: US20250195521A1 (Revolution Medicines, Inc., priority 2020, published 2025)
